From patent publication US6329378A, “Hydrazone, hydrazine and thiosemicarbazone derivatives as antifungal agents” (Anadys Pharmaceuticals, Inc., priority 2000, dated 2001)
Converted amounts (≈) assume the structure as drawn.

What was measured:
[1] = tested on: C. albicans; experiment: MIC, broth microdilution (NCCLS M27-A), C. albicans; format: cell-based, Candida albicans; settings: 48 hours, C. albicans ATCC 10231; for MIC C. albicans: 35° C.; for MIC: Candida albicans, ATCC10231, 35° C.
Procedure: (§1) Compounds of the invention were tested for antifungal susceptibility using broth microdilution assay established by the National Committee for Clinical Laboratory Standards, in NCCLS Document M27-A, which is hereby incorporated by reference. Minimum inhibitory concentrations (MICs) and minimum fungicidal concentrations (MFCs) were measured.
(§2) Yeasts (Saccharomyces cerevisiae and Candida albicans) are cultured on SDA plates in a 35° C. incubator. Strains on SDA plates are stored at 4° C. and used as working stock cultures.
(§3) Inoculum for susceptibility testing is prepared from fresh 24 hour cultures. 5-10 colonies are scraped from the plate and suspended in three milliliters of sterile 0.85% saline (8.5 g/liter NaCl). The cell density of the solution is determined by measuring the absorbance in a spectrophotometer (Shimadzu UV-1201S UV-VIS Spectrophotometer) set at 600 nm. An absorbance value between 0.1 and 0.4 is required for an accurate reading.
(§4) For Candida albicans strains ATCC 10231, 1.0 OD600 unit is approximately 10^7 cells per ml. For Saccharomyces cerevisiae strain CTY552, 1.0 OD600 unit is slightly less than 10^7 cells per ml. Cell suspensions are diluted with the appropriate medium (typically RPMI-1640) to OD600 =0.0003 for Candida and OD600 =0.0004 for Saccharomyces. The diluted suspension contains approximately 3×10^3 cells per ml (this is a 2×concentration inoculum). Two 100 μl aliquots of this dilution are spread on SDA plates and incubated at 35° C. for 1-2 days to determine the precise number of colony forming units. An acceptable range for the inoculum (2×) is 1-5×10^3 cfu/ml (100-500 for 100 μl). Following two-fold dilution of the inoculum with compound, the final concentration of cells will be 0.5-2.5×10^3 per ml. The inoculum is kept at 4° C. and used within a few hours.
(§5) Stock solutions and concentrations tested will vary from compound to compound. In general, though, stock solutions of 12.8 mg/ml in DMSO (Sigma D-8779) are prepared. This will allow for a 128 μg/ml starting test concentration containing 1% DMSO. Stock solutions are stored at -20° C. and dilutions for antifungal testing are freshly prepared before each assay.
(§6) Stock solutions of Amphotericin B and Itraconazole are prepared at 1.6 mg/ml in DMSO. Amphotericin B is sold as a powder that is approximately 80% Amphotericin B. Stock solutions are made accordingly (2.0 mg of powder for a 1 ml solution of 1.6 mg/ml Amphotericin B).
(§7) Both of these (control and test compounds) represent 1:50 dilutions. For an assay with three fungal strains, 40 microliters of a stock solution are diluted to 2.0 ml with room temperature medium.
(§8) Antifungal susceptibility tests are setup in polystyrene, 96-well, flat bottom plates (Costar 9017). To every well in columns 2-12 is added 100 microliters of media. An electronic multichannel (12) pipettor with no tip on channel one is used. To every well in column one is added 200 microliters of diluted compound (32 μg/ml for Amphotericin B and Itraconazole controls, 256 μg/ml for test compounds, 100-fold dilution for natural product extracts). A manual multichannel (8) pipettor is then used to set up a series of 2-fold dilutions. 100 microliters is removed from each well of column one and mixed with 100 microliters in column 2. This is done successively (column two to column three etc.) to produce a set of 11 serial dilutions (column 12 is a drug free control).
(§9) To every well in two rows, 100 μl of inoculum (2×) of a single strain is added. To the final two rows on the plate (G & H), only media is added. Addition of inoculum is best accomplished using an electronic multichannel (12) pipettor. This setup (see below) creates a starting cell density of […] (100-500 per well) and drug concentration ranging from 16 μg/ml to […] for controls (Amphotericin B and Itraconazole), 128 μg/ml to 0.125 μg/ml for pure test compounds, and 200 to 204, 800-fold dilutions for natural product extracts.

[2] = tested on: S. serevisiae; experiment: MIC, broth microdilution (NCCLS M27-A), S. cerevisiae; format: cell-based, Saccharomyces cerevisiae; settings: for MIC S. serevisiae: broth microdilution, 35° C., 48 hours, S. cerevisiae CTY552; for MIC: Saccharomyces cerevisiae, 48 h, read-out: MIC S. serevisiae
Procedure: as §1, §2, §3, §4, §5, §6
Stock solutions of control compounds (1.6 mg/ml, Amphotericin B or Itraconazole) are initially diluted in medium to a concentration of 32 μg/ml while stock solutions of test compounds (typically 12.8 mg/ml) are diluted to 256 μg/ml. Both of these (control and test compounds) represent 1:50 dilutions. For an assay with three fungal strains, 40 microliters of a stock solution are diluted to 2.0 ml with room temperature medium.
as §8
To every well in two rows, 100 μl of inoculum (2×) of a single strain is added. To the final two rows on the plate (G & H), only media is added. Addition of inoculum is best accomplished using an electronic multichannel (12) pipettor. […]

[3] = tested on: A. Nidulans; experiment: MIC, broth microdilution (NCCLS M27-A), A. nidulans; format: cell-based; settings: 35° C., 48 hours; for MIC: Aspergillus nidulans
Procedure: as §1
Filamentous fungi (Aspergillus spp.) is cultured on PDA plates in a 35° C. incubator. Inoculum of Aspergillus for susceptibility testing is prepared from plates incubated at 35° C. for 5 days. Colonies are covered with 5 ml of sterile 0.85% saline (8.5 g/liter NaCl) and gently rocked for 10-15 minutes. To dislodge the conidia, an automatic pipettor is used to gently wash over the colonies. The saline solution is removed from the plate and the heavy particles are allowed to settle for 3-5 minutes. The upper suspension is removed and vortexed for 15 sec. The turbidity of the solution is determined by measuring the absorbance in a spectrophotometer (Shimadzu UV-1201S UV-VIS Spectrophotometer) set at 600 nm. An absorbance value between 0.1 and 0.4 is required for an accurate reading.
The cell suspension is diluted with the appropriate medium (typically RPMI-1640) to OD600 =0.0004. The final suspension should contain approximately 3×10^3 cfu per ml (this is a 2×concentrationinoculum). Two 100 μl aliquots of this dilution are spread on SDA plates and incubated at 35° C. for 1-2 days to determine the precise number of colony forming units. An acceptable range for the inoculum (2×) is 1-5×10^3 cfu/ml (100-500 for 100 μl). Following two-fold dilution of the inoculum with compound, the final concentration of cells will be 0.5-2.5×10^3 per ml. The inoculum is kept at 4° C. and used within a few hours.
as §5, §6, §7, §8, §9

Compound: 2-pyridyl-benzaldehyde-N-(3-methoxy-2-pyrazinyl)hydrazine [(34)]
- MIC C. albicans [1]: 2 µg/mL
- MIC S. serevisiae [2]: 1 µg/mL
- MIC A. Nidulans [3]: 1 µg/mL

Compound: 3-carboxyl-2-hydroxybenzaldehyde-N-(3-methoxy-2-phenyl)hydrazine [(17)]
- MIC C. albicans [1]: > 128 µg/mL
- MIC S. serevisiae [2]: > 128 µg/mL
- MIC A. Nidulans [3]: > 128 µg/mL

Compound: COc1cc(O)c(C=NNc2nccnc2OC)c(OC)c1 [(5)]
- MIC [1]: 1 µg/mL (≈ 3.29 µM)
- MIC [2]: 1 µg/mL (≈ 3.29 µM)
- MIC [3]: 2 µg/mL (≈ 6.57 µM)

Compound: COc1nccnc1NN=Cc1cccc(O)c1O [(6)]
- MIC [1]: 2 µg/mL (≈ 7.68 µM)
- MIC [2]: 1 µg/mL (≈ 3.84 µM)
- MIC [3]: 1 µg/mL (≈ 3.84 µM)

Compound: COc1nccnc1NN=Cc1ccc(O)cc1O [(7)]
- MIC [1]: 1 µg/mL (≈ 3.84 µM)
- MIC [2]: 1 µg/mL (≈ 3.84 µM)
- MIC [3]: 2 µg/mL (≈ 7.68 µM)

Compound: COc1nccnc1N/N=C/c1ccc(O)c(O)c1O [(8)]
- MIC [1]: 4 µg/mL (≈ 14.5 µM)
- MIC [2]: 2 µg/mL (≈ 7.24 µM)
- MIC [3]: > 128 µg/mL

Compound: COc1nccnc1N/N=C/c1ccc2ccccc2n1 [(9)]
- MIC [1]: 8 µg/mL (≈ 28.6 µM)
- MIC [2]: 8 µg/mL (≈ 28.6 µM)
- MIC [3]: 16 µg/mL (≈ 57.3 µM)

Compound: O=C(O)c1ccc(O)c(C=NNc2ccccc2)c1 [(18), 5-carboxyl-2-hydroxybenzaldehyde-N-phenyl hydrazone]
- MIC [1]: 1 µg/mL (≈ 3.9 µM)
- MIC [2]: 1 µg/mL (≈ 3.9 µM)
- MIC [3]: 0.125 µg/mL (≈ 0.488 µM)

Compound: Oc1ccccc1C=NNc1ccccc1 [(19), 2-hydroxybenzaldehyde-N-phenyl hydrazone]
- MIC [1]: 1 µg/mL (≈ 4.71 µM)
- MIC [2]: 1 µg/mL (≈ 4.71 µM)
- MIC [3]: 0.125 µg/mL (≈ 0.589 µM)

Compound: O=C(O)c1ccc(O)c(C=NNc2cccc([N+](=O)[O-])c2)c1 [(20), 5-carboxyl-2-hydroxybenzaldehyde-N-3-nitro-phenyl hydrazone]
- MIC [1]: 8 µg/mL (≈ 26.6 µM)
- MIC [2]: 16 µg/mL (≈ 53.1 µM)
- MIC [3]: 2 µg/mL (≈ 6.64 µM)

Compound: O=C(O)c1ccc(O)c(C=NNc2ccccc2OC(F)(F)F)c1 [(21), 5-carboxyl-2-hydroxybenzaldehyde-N-2-trifluoromethyloxy-phenyl hydrazone]
- MIC [1]: 2 µg/mL (≈ 5.88 µM)
- MIC [2]: 1 µg/mL (≈ 2.94 µM)
- MIC [3]: 1 µg/mL (≈ 2.94 µM)

Compound: O=C(O)c1ccc(O)c(C=NNc2ccccc2C(=O)O)c1 [(22), 5-carboxyl-2-hydroxybenzaldehyde-N-2-carboxyl-phenyl hydrazone]
- MIC [1]: > 64 µg/mL
- MIC [2]: > 64 µg/mL
- MIC [3]: > 64 µg/mL

Compound: O=C(O)c1ccc(O)c(C=NNc2cccc(F)c2)c1 [(23), 5-carboxyl-2-hydroxybenzaldehyde-N-3-fluorophenyl hydrazone]
- MIC [1]: 2 µg/mL (≈ 7.29 µM)
- MIC [2]: 2 µg/mL (≈ 7.29 µM)
- MIC [3]: 0.125 µg/mL (≈ 0.456 µM)

Compound: O=C(O)c1ccc(O)c(C=NNc2ccccc2F)c1 [(24), 5-carboxyl-2-hydroxybenzaldehyde-N-2-fluoro-phenyl hydrazone]
- MIC [1]: 0.25 µg/mL (≈ 0.912 µM)
- MIC [2]: 0.5 µg/mL (≈ 1.82 µM)
- MIC [3]: 0.063 µg/mL (≈ 0.23 µM)

Compound: O=C(O)c1ccc(O)c(C=NNc2ccccc2Br)c1 [(25), 5-carboxyl-2-hydroxybenzaldehyde-N-2-bromophenyl hydrazone]
- MIC [1]: 2 µg/mL (≈ 5.97 µM)
- MIC [2]: 2 µg/mL (≈ 5.97 µM)
- MIC [3]: 1 µg/mL (≈ 2.98 µM)
